Laboratory results published in patent US9034825B2, “Treatment of myocardial injury with humanin analogs” (Albert Einstein College of Medicine of Yeshiva University, priority 2007, dated 2015).
Values belong to the substance of their own block, whether it stands above or below them. Where no end group is shown, it is not given here.

Columns and labels:
Sprague-Dawley rats [1] = assay: ICV infusion of IGF-1, IGFBP-3 or NLS mutant with basal and hyperinsulinemic clamp; type: in vivo, rat; conditions: for Glycogen synthesis, Basal / Glycolysis, Basal / HGP, Basal: basal period; for GIR, Clamp: hyperinsulinemic clamp 3 mU/kg/min; for FFA: last 60 min; for whole body glucose disposal / peripheral glucose uptake (Rd) compared to controls: final 60 min; for infused human peptide in the rat periphery: after ICV infusion
From the text: Young (3 mo old, n=6 in each group), male Sprague-Dawley rats (Charles River Laboratories, Wilmington, Mass.) were used for this study. Rats were housed in individual cages and were subjected to a standard light (6:00 AM to 6:00 PM)—dark (6:00 PM to 6:00 AM) cycle. All rats were fed ad libitum using regular rat chow that consisted of 64% carbohydrate, 30% protein, and 6% fat with a physiological fuel value of 3.3-kcal/g chow. In the rats that received ICV infusions, 2 to 4 weeks before the in vivo study, the rats were anesthetized by inhalation of isoflurane and a cannula was placed ICV in the third ventricle for infusions of IGF-1, IGFBP-3 or IGFBP-3 mutant or artificial cerebrospinal fluid (aCSF), as previously described (Muzumdar et al., 2003) (FIG. 1). Briefly, a 26-gauge stainless steel guide cannula (Plastics One, Roanoke, Va.) was chronically implanted into the third ventricles using the following coordinates from bregma: anterior-posterior; +0.2 mm dorsal-ventral; −9.0 mm medial-lateral; 0.0 directly on the mid-sagittal suture, followed by a 28-gauge dummy cannula, inserted to prevent clogging of the guide cannula. The implant was secured to the skull with Caulk Grip dental cement, and the skin was closed over the implant using wound clips. The recovery of rats from the surgical stress was monitored with daily weight, food intake, and movement.
Upon recovery of body weight, usually a week, indwelling catheters were placed in the right internal jugular vein and in the left carotid artery (Muzumdar et al., 2003). The venous catheter was extended to the level of the right atrium, and the arterial catheter was advanced to the level of the aortic arch. Recovery was continued until body weight was within 3% of the pre-operative weight (˜4-6 days). In the rats that received peripheral IGFBP-3, only the vascular catheters were placed.
Studies were performed in unrestrained rats using the insulin clamp technique, in combination with high performance liquid chromatography-purified [3-^3H]glucose and [U-^14C]lactate infusions, as described previously (Liu et al., 1998). Food was removed for ˜5 h before the in vivo protocol. All studies lasted 360 min and included a 120-min equilibration period, a 120-min basal period for assessment of the basal glucose turnover, and a 120-min hyperinsulinemic clamp period. All rats received ICV infusions (bolus followed by continuous ICV infusions of IGF-1, IGFBP-3, IGFBP-3 mutant or aCSF, depending on the group) over the entire 6 hours of the study. At the beginning of the basal period and 120 min before starting the glucose/insulin infusions, a primed-continuous infusion of high performance liquid chromatography-purified [3-^3H]glucose (NEN Life Science Products, Boston, Mass.; 20 μCi of bolus, 0.2 μCi/min) was initiated and maintained throughout the remaining 4 h of the study. In the final 2 hours of the study, the rats were subjected to hyperinsulinemic clamp. The protocol followed during the insulin clamp study was similar to that previously described (Liu et al., 1998). Briefly, a primed-continuous infusion of regular insulin (3 milliunits/kg·min) was administered, and a variable infusion of a 25% glucose solution was started and periodically adjusted to clamp the plasma glucose concentration at 7-8 mM. To prevent endogenous insulin secretion and in order to control for possible effects of ICV infusions on the endocrine pancreas, somatostatin (1.5 μg/kg·min) was also infused in all the groups. [U-^14C]Lactate (5 μCi of bolus/0.25 μCi/min) was infused during the last 10 min of the study.
A bolus of hIGF-1 (0.3 mcg, a gift from Tercica, South San Francisco) was followed by a continuous infusion over 6 hours (total dose of 1 mcg, 0.06 μg/kg/hr).
A bolus of non glycosylated hIGFBP-3 (1.25 μg, generously provided by Celtrix, Mountain View Calif.) was followed by a continuous infusion over 6 hours (total dose of 5.25 mcg, 0.26 μg/kg/hr). […]

[2] = tested on: Glc-6-Pase mRNA in the liver; assay: Hepatic Glc-6-Pase mRNA by qRT-PCR at end of clamp after ICV infusion; type: in vivo, rat
Method: (§1) Total RNA was extracted following Clontech's protocol. First-stranded cDNA was synthesized from 1 μg of total RNA using Superscript III (Gibco, Gaithersburg, Md.). Hepatic glucose-6-phosphatase (Glc-6-Pase) and phosphoenolpyruvate carboxykinase (PEPCK) mRNA abundance were assessed by qRT-PCR as described previously (Buettner et al., 2005). Quantification of these peptides and their copy number was normalized for GAPDH and 18S to correct for loading irregularities. The data presented are those normalized by GAPDH.

PEPCK mRNA in the liver = assay: Hepatic PEPCK mRNA by qRT-PCR at end of clamp after ICV infusion; type: in vivo, rat; conditions: ICV infusion for 6 h, end of clamp (Example 1)
Method: as §1

NIT cells = assay: Survival, STAT-3 and ERK activation in NIT cells; type: cell-based
From the text: Z-humanin, […] (SEQ ID NO:19).

[3] = tested on: pAKT and pSTAT-3 in hepatocytes; assay: Western blot of Phospho-STAT3 and Phospho-AKT in primary hepatocytes; type: cell-based, rat
Method: Single-cell suspensions of hepatocytes were obtained from perfusions of Sprague-Dawley rats using the procedure of Berry and Friend (1969) and the perfusion mixture of Leffert et al (1979). Hepatocyte glucose production was estimated after a 24 hr treatment with HN, F6A and saline as described before (Berg et al. 2001). In a separate set of experiment, hepatocytes were lysed, and protein extracted in RIPA lysis buffer at 30, 60 and 360 min post treatment with FIN, F6A and saline. The cell lysates were then subject to western blotting for Phospho-STAT3 (Tyr705), total-STAT3, Phospho-AKT (Ser473), and total-AKT expression (antibodies purchased from Cell Signaling, #9131, #9132, #9271, #9272).

IGF-1 = IGF-1 (Homo sapiens, UniProt P05019); assay: Western ligand blots with 125I-labeled IGF-1; type: binding; conditions: data not shown
Sprague-Dawley rats [4] = assay: Intravenous infusion of humanin or analogs during hyperinsulinemic clamp; type: in vivo, rat; conditions: IV during hyperinsulinemic clamp
Method: To study the acute effects of an infusion of IGFBP-3, two groups of awake, unstressed, chronically catheterized Sprague-Dawley rats (˜300 g) were studied for 300 min (n=3 in each group) under hyperinsulinemic clamp (as previously described). From 120 min the rats received a primed continuous infusion of humanin (0.375 mg/kg/hr) or saline (control) for an additional 2 h. Plasma samples for determination of [3H]glucose and [3H] water specific activities were obtained at 10-min intervals during the basal and clamp periods. Steady state conditions for the plasma glucose concentration and specific activity were achieved within 90 min in all the studies. Plasma samples for determination of HN, insulin and FFA concentrations were collected at 30-min intervals throughout the study. All determinations were also performed on portal vein blood obtained at the end of the experiments. The total amount of blood drawn during the entire study for various assays is ˜3 cc. After separation of plasma (subsequently used for analysis), the red blood cells were reconstituted in saline and infused back into the animal.
To determine if peripheral infusion of the humanin analog colivelin affects insulin action, saline or colivelin (one hundredth of the dose of humanin) was infused intravenously during hyperinsulinemic clamp to two groups of rats that were matched for body weight (˜300 gm), visceral fat (˜3.5 grams), basal glucose (˜135 mg % or 7 mM). Colivelin increased hepatic insulin sensitivity by 33% while peripheral glucose uptake was unchanged (FIG. 14).
A primed-continuous ICV infusion of HN, F6A-HN (total dose of 20 μg), STAT-3 inhibitor (75 pmol) (Buettner et al. 2006), or aCSF was initiated at t=0 and maintained for the remainder of the experiment (FIG. 15A). Pancreatic insulin-clamp studies or euglycemic-hyperinsulinemic clamps were performed in conscious, unrestrained, catheterized mice for last 120 minutes as described previously (Bahar et al. 2006, Muzumdar et al. 2006). In the intra-venous group, HN, F6A, Colivelin, and HNGF6A were infused intravenously and hyperinsulinemic clamps were performed as described previously (Loeb et al. 2005). Estimation of glucose, glucose fluxes, insulin, FFA were done as described previously (Loeb et al. 2005). HN measurements were performed by an in-house, ELISA utilizing affinity purified humanin antibodies that recognize both human and rat humanin and has a limit of detection of 0.1 ng/ml (Hwang, and Cohen personal communication).

[5] = ICV IGF-1 1 μg over 6 h, hyperinsulinemic clamp
[6] = ICV infusion, hyperinsulinemic clamp
[7] = ICV IGFBP-3 or NLS mutant over 6 h
[8] = ICV IGFBP-3 or NLS mutant over 6 h, hyperinsulinemic clamp
[9] = humanin 0.375 mg/kg/hr, colivelin one hundredth of the dose of humanin

IGF-1, sequence (P05019 49-118): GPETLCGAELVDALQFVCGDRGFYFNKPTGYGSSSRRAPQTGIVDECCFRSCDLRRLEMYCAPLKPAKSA

Substance: MAKRGLNCLPHQVSEIDLSVQKRI (Danio rerio) [Z-humanin]
- potency in survival, STAT-3 activation and ERK activation relative to humanin (NIT cells): two-fold greater potency than humanin

Substance: MAPRGASCLLLLTGEIDLPVARRA (Humanin analog HNGF6AK21A)
- potency in survival, STAT-3 activation and ERK activation relative to humanin (NIT cells): much greater potency than humanin

Substance: MAPRGASCLLLLTSEIDLPVKRRA [F6A HN, maprgascll lltseidlpv krra]
- pAKT or pSTAT-3 in hepatocytes [3]: did not elicit significant changes

Substance: sallrsipap agasrllllt geidlp (SALLRSIPAPAGASRLLLLTGEIDLP; Humanin analog colivelin)
- HGP / hepatic insulin action (Sprague-Dawley rats [4]; HN 0.375 mg/kg/hr, Colivelin 0.00375 mg/kg/hr): significant further enhancement in hepatic insulin action
- increase in hepatic insulin sensitivity (Sprague-Dawley rats [4]; [9]): 33%
- peripheral glucose uptake (Sprague-Dawley rats [4]; [9]): unchanged

The next lines start with results.

- expression of G-6Pase lower than aCSF ([2]; ICV IGF-1, end of clamp): 3 fold
- expression of G-6Pase in the liver, ratio to GAPDH ([2]; ICV infusion for 6 h, end of clamp (Example 1)): 2.6 ±0.6
Substance: IGF-1: hIGF-1, Insulin-like growth factor-1, a gift from Tercica
- Glycogen synthesis, Basal (Sprague-Dawley rats [1]; ICV IGF-1 1 μg over 6 h): 4.87 ± 0.87
- Glycolysis, Basal (Sprague-Dawley rats [1]; ICV IGF-1 1 μg over 6 h): 7.02 ± 0.93 mg/kg/min
- HGP, Basal (Sprague-Dawley rats [1]; ICV IGF-1 1 μg over 6 h): 12.4 ± 1.65 mg/kg/min
- Glycogen synthesis, Clamp (Sprague-Dawley rats [1]; [5]): 8.09 ± 0.67
- Glycolysis, Clamp (Sprague-Dawley rats [1]; [5]): 13.53 ± 1.17 mg/kg/min
- HGP, Clamp (Sprague-Dawley rats [1]; [5]): 2.49 ± 0.54 mg/kg/min
- Rd, Clamp (Sprague-Dawley rats [1]; [5]): 21.62 ± 0.74 mg/kg/min
- GIR, Clamp (Sprague-Dawley rats [1]; ICV IGF-1 1 μg over 6 h): 19.08 ± 1.55 mg/kg/min
- FFA (Sprague-Dawley rats [1]; [5]): 0.23 ± 0.02 mEq/l
- IGF-1, human (Sprague-Dawley rats [1]; ICV IGF-1 1 μg over 6 h, peripheral plasma): 0 ng/mL
- improvement in hepatic insulin action (lower HGP than controls) (Sprague-Dawley rats [1]; ICV IGF-1, insulin clamp 3 mU/kg/min): 50%
- gluconeogenesis (Sprague-Dawley rats [1]; [6]): 0.54 ± 0.2 mg/kg/min
- glycogenolysis / hepatic glucose fluxes compared to controls (Sprague-Dawley rats [1]; [6]): marked decrease
- insulin induced suppression of FFA compared to controls (Sprague-Dawley rats [1]; [6]): significantly higher
- whole body glucose disposal / peripheral glucose uptake (Rd) compared to controls (Sprague-Dawley rats [1]; [6]): tended to augment
- infused human peptide in the rat periphery (Sprague-Dawley rats [1]): No hIGF-1 was detected
- infused human peptide in the rat periphery (Sprague-Dawley rats [1]; listed as human IGF-1): No human IGF-1, hIGFBP-3 or NLS-IGFBP-3 was identified
- PEPCK mRNA in the liver, ratio to GAPDH (PEPCK mRNA in the liver): 3.4 ±0.6

- binding to 125I-labeled IGF-1 (IGF-1): bound equally
Substance: NLS: non-glycosylated NLS mutant of IGFBP-3 with two amino acid substitutions (K228E and R230G)
- Glycogen synthesis, Basal (Sprague-Dawley rats [1]; [7]): 5.34 ± 0.38
- Glycolysis, Basal (Sprague-Dawley rats [1]; [7]): 7.40 ± 0.71 mg/kg/min
- HGP, Basal (Sprague-Dawley rats [1]; [7]): 13.00 ± 0.72 mg/kg/min
- Glycogen synthesis, Clamp (Sprague-Dawley rats [1]; [8]): 6.93 ± 0.37
- Glycolysis, Clamp (Sprague-Dawley rats [1]; [8]): 10.44 ± 0.96 mg/kg/min
- HGP, Clamp (Sprague-Dawley rats [1]; [8]): 5.37 ± 0.65 mg/kg/min
- Rd, Clamp (Sprague-Dawley rats [1]; [8]): 17.38 ± 1.11 mg/kg/min
- GIR, Clamp (Sprague-Dawley rats [1]; [7]): 11.98 ± 1.14 mg/kg/min
- FFA (Sprague-Dawley rats [1]; [8]): 0.35 ± 0.05 mEq/l
- h-IGFBP-3 (Sprague-Dawley rats [1]; ICV IGFBP-3 or NLS mutant over 6 h, peripheral plasma): 0 ng/mL
- glycogenolysis / hepatic glucose fluxes compared to controls (Sprague-Dawley rats [1]; [6]): no changes in glucose fluxes compared to controls
- whole body glucose disposal / peripheral glucose uptake (Rd) compared to controls (Sprague-Dawley rats [1]; [6]): did not result in significant changes
- infused human peptide in the rat periphery (Sprague-Dawley rats [1]): No human IGF-1, hIGFBP-3 or NLS-IGFBP-3 was identified
